Test results: patent publication US20250270227A1, “CAMPTOTHECIN DERIVATIVE, AND PHARMACEUTICAL COMPOSITION AND USE THEREOF” (SIMCERE ZAIMING PHARMACEUTICAL CO., LTD., priority 2021, published 2025)

Assays:
[1] = test system: Human colorectal cancer cell line HCT116; assay: Test 1 of anti-proliferative activity against tumor cells (Cell-Titer Glo); assay type: cell-based; conditions: Homo sapiens, HCT-116, 72 h, read-out: HCT116 Anti-proliferative activity IC50 (nM), HCT116 cells, cultured 3 days with compound, Cell-Titer Glo
Method: (§1) Cell culture: HCT116 cells and SKBR3 cells were cultured in McCoy's 5a medium containing 10% fetal bovine serum+1% penicillin-streptomycin at 37° C. and 5% CO2, and OVCAR3 cells were cultured in 1640 medium containing 20% fetal bovine serum+2 μg/mL bovine insulin+1% penicillin-streptomycin at 37° C. and 5% CO2. Cells in logarithmic growth phase were suitable for the experiment.
(§2) Detection of cell proliferation activity: The inhibitory activity of the compounds on the proliferation of the three cell lines HCT116, SKBR3 and OVCAR3 was detected using Cell-Titer Glo reagent. HCT116 cells (1500 cells per well), SKBR3 cells (3000 cells per well) and OVCAR3 cells (5000 cells per well) were seeded in 96-well plates and cultured at 37° C. and 5% CO2 for 24 h. The solution of the compound to be tested (the compound was dissolved in DMSO with the concentration of the compound being 1 mM, then the compound was diluted to 3 μM with DMSO, with 3-fold dilution and a total of 9 concentrations, and 10 μL of the prepared compound solution was transferred to a 96-well plate with the final concentration of 0-300 nM) was added. The cells were placed at 37° C. and 5% CO2 for further culture. HCT116 cells were cultured for 3 days, and SKBR3 cells and OVCAR3 cells were cultured for 5 days. The cell viability was detected by adding Cell-Titer Glo reagent.
(§3) Additionally, a negative control group and a positive control group were provided as Bottom and Top, respectively. In the negative control group, the cells were not added, only the same volume of medium was added, and other operations were consistent with those in the experimental group; in the positive control group, the test compound was not added, only the same volume of DMSO was added, and other operations were consistent with those in the experimental group.
(§4) Data analysis: The % compound inhibition was calculated, and fitting was performed to obtain IC50 of the compound.
(§5) % Compound inhibition=1−100%*(Signal−Bottom)/(Top−Bottom).
(§6) Signal represents the signal value of the experimental group, Bottom represents the average signal value of the negative control group, and Top represents the average signal value of the positive control group.

[2] = test system: human breast cancer cell line SKBR3; assay: as above; assay type: cell-based; conditions: Homo sapiens, SK-BR-3, 120 h, read-out: SKBR3 Anti-proliferative activity IC50 (nM), SKBR3 cells, cultured 5 days with compound, Cell-Titer Glo
Method: as §1, §2, §3, §4, §5, §6

CC[C@@]1(O)C(=O)OCc2c1cc1n(c2=O)Cc2c-1nc1cc3c(cc1c2CNC(=O)CO)OCCO3 [Compound 1, (S)-N-((8-ethyl-8-hydroxy-9,12-dioxo-2,3,8,9,12,14-hexahydro-11H-[1,4]dioxino[2,3-g]pyrano[3′,4′:6,7]indolizino[1,2-b]quinolin-15-yl)methyl)-2-hydroxyacetamide]
IC50 [1]: 36.8 nM
IC50 [2]: 8.5 nM

CC[C@@]1(O)C(=O)OCc2c1cc1n(c2=O)Cc2c-1nc1cc(F)c(Cl)cc1c2CN [Compound 2, (S)-11-(aminomethyl)-9-chloro-4-ethyl-8-fluoro-4-hydroxy-1,12-dihydro-14H-pyrano[3′,4′:6,7]indolizino[1,2-b]quinoline-3,14(4H)-dione]
IC50 [1]: 3.6 nM
IC50 [2]: 2.5 nM

CC[C@@]1(O)C(=O)OCc2c1cc1n(c2=O)Cc2c-1nc1cc(F)c(Cl)cc1c2CNC(=O)CO [Compound 3, (S)-N-((9-chloro-4-ethyl-8-fluoro-4-hydroxy-3,14-dioxo-3,4,12, 14-tetrahydro-1H-pyrano[3′,4′:6,7]indolizino[1,2-b]quinolin-11-yl)methyl)-2-hydroxyacetamid]
IC50 [1]: 18.2 nM
IC50 [2]: 3.6 nM

CC[C@@]1(O)C(=O)OCc2c1cc1n(c2=O)Cc2c-1nc1cc(F)c(Br)cc1c2CN [Compound 4, (S)-11-(aminomethyl)-9-bromo-4-ethyl-8-fluoro-4-hydroxy-1,12-dihydro-14H-pyrano[3′,4′:6,7]indolizino[1,2-b]quinoline-3,14(4H)-dione]
IC50 [1]: 3.6 nM
IC50 [2]: 2.7 nM

CC[C@@]1(O)C(=O)OCc2c1cc1n(c2=O)Cc2c-1nc1cc(F)c(Br)cc1c2CNC(=O)CO [Compound 5, (S)-N-((9-bromo-4-ethyl-8-fluoro-4-hydroxy-3,14-dioxo-3,4, 12,14-tetrahydro-1H-pyrano[3′,4′:6,7]indolizino[1,2-b]quinolin-11-yl)methyl)-2-hydroxyacetamide]
IC50 [1]: 16.9 nM
IC50 [2]: 3.3 nM

CC[C@@]1(O)C(=O)OCc2c1cc1n(c2=O)Cc2c-1nc1ccc3c(c1c2CNC(=O)CO)CCC3 [Compound 7, (S)-N-((8-ethyl-8-hydroxy-9,12-dioxo-2,3,8,9,12,14-hexahydro-1H,11H-cyclopentadieno[f]pyrano[3′,4′:6,7]indolizino[1,2-b]quinolin-15-yl)methyl)-2-hydroxyacetamide]
IC50 [1]: 22.8 nM

CC[C@@]1(O)C(=O)OCc2c1cc1n(c2=O)Cc2cc3c(CNC(=O)CO)c(O)ccc3nc2-1 [Compound 8, (S)-N-((4-ethyl-4,9-dihydroxy-3,14-dioxo-3,4,12,14-tetrahydro-1H-pyrano[3′,4′:6,7]indolizino[1,2-b]quinolin-10-yl)methyl)-2-hydroxyacetamide]
IC50 [1]: 289 nM
IC50 [2]: 55.1 nM

CC[C@@]1(O)C(=O)OCc2c1cc1n(c2=O)Cc2c-1nc1cc(F)c(C)cc1c2CNC(=O)C1(O)CC1 [Compound 9, (S)-N-((4-ethyl-8-fluoro-4-hydroxy-9-methyl-3,14-dioxo-3,4,12, 14-tetrahydro-1H-pyrano[3′,4′:6,7]indolizino[1,2-b]quinolin-11-yl)methyl)-1-hydroxycyclopropane-1-carboxamide]
IC50 [1]: 4.6 nM
IC50 [2]: 2.1 nM

CC[C@@]1(O)C(=O)OCc2c1cc1n(c2=O)Cc2c-1nc1cc(Cl)c(C)cc1c2CNC(=O)C1(O)CC1 [Compound 10, (S)-N-((8-chloro-4-ethyl-4-hydroxy-9-methyl-3,14-dioxo-3,4, 12,14-tetrahydro-1H-pyrano[3′,4′:6,7]indolizino[1,2-b]quinolin-11-yl)methyl)-1-hydroxycyclopropan-1-carboxamide]
IC50 [1]: 5.6 nM
IC50 [2]: 2.3 nM

CC[C@@]1(O)C(=O)OCc2c1cc1n(c2=O)Cc2c-1nc1cc(Cl)c(C)cc1c2CNC(=O)C(O)C1CC1 (stereo partly drawn) [Compound 11, N-(((S)-8-chloro-4-ethyl-4-hydroxy-9-methyl-3,14-dioxo-3,4, 12,14-tetrahydro-1H-pyrano[3′,4′:6,7]indolizino[1,2-b]quinolin-11-yl)methyl)-2-cyclopropyl-2-hydroxyacetamide]
IC50 [1]: 10.4 nM
IC50 [2]: 3.2 nM

CC[C@@]1(O)C(=O)OCc2c1cc1n(c2=O)Cc2c-1nc1cc(F)c(Cl)c(F)c1c2CN [Compound 12, (S)-11-(aminomethyl)-9-chloro-4-ethyl-8,10-difluoro-4-hydroxy-1,12-dihydro-14H-pyrano[3′,4′:6,7]indolizino[1,2-b]quinoline-3,14(4H)-dione]
IC50 [1]: 13.7 nM
IC50 [2]: 4.8 nM

CC[C@@]1(O)C(=O)OCc2c1cc1n(c2=O)Cc2c-1nc1cnc(Br)cc1c2CNC(=O)CO [Compound 15, (S)-N-((9-bromo-4-ethyl-4-hydroxy-3,14-dioxo-3,4,12,14-tetrahydro-1H-pyrano[3′,4′:6,7]indolizino[1,2-b][1,7]naphthyridin-11-yl)methyl)-2-hydroxyacetamide]
IC50 [1]: 81.3 nM

CC[C@@]1(O)C(=O)OCc2c1cc1n(c2=O)Cc2c-1nc1cc(F)c(Cl)c(F)c1c2CNC(=O)C1(O)CC1 [Compound 16, (S)-N-((9-chloro-4-ethyl-8,10-difluoro-4-hydroxy-3,14-dioxo-3,4,12,14-tetrahydro-1H-pyrano[3′,4′:6,7]indolizino[1,2-b]quinolin-11-yl)methyl)-1-hydroxycyclopropane-1-carboxamide]
IC50 [1]: 3 nM
IC50 [2]: 2.3 nM

CC[C@@]1(O)C(=O)OCc2c1cc1n(c2=O)Cc2c-1nc1cc(Cl)c(C)cc1c2CNC(=O)C(C)(C)O [Compound 17, (S)-N-((8-chloro-4-ethyl-4-hydroxy-9-methyl-3,14-dioxo-3,4, 12,14-tetrahydro-1H-pyrano[3′,4′:6,7]indolizino[1,2-b]quinolin-11-yl)methyl)-2-hydroxy-2-methylpropanamide]
IC50 [1]: 6 nM
IC50 [2]: 2.7 nM

CC[C@@]1(O)C(=O)OCc2c1cc1n(c2=O)Cc2c-1nc1cc(Cl)c(C)cc1c2CNC(=O)C(O)C(C)C (stereo partly drawn) [Compound 18, N-(((S)-8-chloro-4-ethyl-4-hydroxy-9-methyl-3,14-dioxo-3,4, 12,14-tetrahydro-1H-pyrano[3′,4′:6,7]indolizino[1,2-b]quinolin-11-yl)methyl)-2-hydroxy-3-methylbutanamide]
IC50 [1]: 10.5 nM
IC50 [2]: 5.1 nM

CC[C@@]1(O)C(=O)OCc2c1cc1n(c2=O)Cc2c-1nc1cc(F)c(C)cc1c2CNC1(CO)CC1 [Compound 19, (S)-4-ethyl-8-fluoro-4-hydroxy-11-(((1-(hydroxymethyl)cyclopropyl)amino)methyl)-9-methyl-1,12-dihydro-14H-pyrano[3′,4′:6,7]indolizino[1,2-b]quinoline-3,14(4H)-dione]
IC50 [1]: 5 nM
IC50 [2]: 4 nM

CC[C@@]1(O)C(=O)OCc2c1cc1n(c2=O)Cc2c-1nc1ccc3occc3c1c2CNC(=O)CO [Compound 20, (S)-N-((8-ethyl-8-hydroxy-9,12-dioxo-8,9,12,14-tetrahydro-11H-furo[3,2-f]pyrano[3′,4′:6,7]indolizino[1,2-b]quinolin-15-yl)methyl)-2-hydroxyacetamide]
IC50 [1]: 20.7 nM
IC50 [2]: 10.5 nM

CC[C@@]1(O)C(=O)OCc2c1cc1n(c2=O)Cc2c-1nc1cc(Cl)c3occc3c1c2CNC(=O)CO [Compound 27, (S)-N-((4-chloro-8-ethyl-8-hydroxy-9,12-dioxo-8,9,12,14-tetrahydro-11H-furo[3,2-f]pyrano[3′,4′:6,7]indolizino[1,2-b]quinolin-15-yl)methyl)-2-hydroxyacetamide]
IC50 [1]: 24.3 nM

CC[C@@]1(O)C(=O)OCc2c1cc1n(c2=O)Cc2c-1nc1cc(Cl)c3occc3c1c2CNC(=O)C(O)C1CC1 (stereo partly drawn) [Compound 28, N-(((S)-4-chloro-8-ethyl-8-hydroxy-9,12-dioxo-8,9,12,14-tetrahydro-11H-furo[3,2-f]pyrano[3′,4′:6,7]indolizino[1,2-b]quinolin-15-yl)methyl)-2-cyclopropyl-2-hydroxyacetamide]
IC50 [1]: 8.8 nM

CC[C@@]1(O)C(=O)OCc2c1cc1n(c2=O)Cc2c-1nc1cc3c(c([N+](=O)[O-])c1c2CNC(=O)C(O)C1CC1)OCO3 (stereo partly drawn) [Compound 29, 2-cyclopropyl-N-(((S)-7-ethyl-7-hydroxy-15-nitro-8,11-dioxo-7,8,11,13-tetrahydro-10H-[1,3]dioxolo[4,5-g]pyrano[3′,4′:6,7]indolizino[1,2-b]quinolin-14-yl)methyl)-2-hydroxyacetamide]
IC50 [1]: 55.1 nM
